As a reminder, the IC50 is the concentration needed to halve the response being measured. A high value points to a need for much substance.

Molecules are shown by their SMILES. Some results are limits rather than exact numbers.

The target of this assay is T1, SARM1 (50-724) (Homo sapiens, UniProt Q6SZW1).
T1 sequence (Q6SZW1 50-724): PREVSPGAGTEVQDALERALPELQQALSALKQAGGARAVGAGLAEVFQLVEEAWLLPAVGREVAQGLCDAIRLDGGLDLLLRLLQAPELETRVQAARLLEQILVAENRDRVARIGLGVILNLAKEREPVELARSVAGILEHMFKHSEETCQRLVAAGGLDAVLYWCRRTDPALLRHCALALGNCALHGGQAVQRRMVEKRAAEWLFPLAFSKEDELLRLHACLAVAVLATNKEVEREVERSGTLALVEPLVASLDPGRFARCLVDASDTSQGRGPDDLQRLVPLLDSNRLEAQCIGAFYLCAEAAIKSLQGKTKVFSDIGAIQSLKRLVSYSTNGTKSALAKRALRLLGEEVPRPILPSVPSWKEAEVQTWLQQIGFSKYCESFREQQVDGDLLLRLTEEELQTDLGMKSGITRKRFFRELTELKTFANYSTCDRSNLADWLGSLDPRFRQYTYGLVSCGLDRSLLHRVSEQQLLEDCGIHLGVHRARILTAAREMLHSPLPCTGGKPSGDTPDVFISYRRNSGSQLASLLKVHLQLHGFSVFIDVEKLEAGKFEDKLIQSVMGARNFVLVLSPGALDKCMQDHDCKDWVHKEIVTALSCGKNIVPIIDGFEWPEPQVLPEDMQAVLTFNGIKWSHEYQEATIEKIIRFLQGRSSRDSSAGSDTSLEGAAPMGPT
Description: biochemical.
Description: An enzymatic assay was performed in a 384-well plate using Dulbecco's phosphate-buffered saline (PBS) as the reaction buffer. […] The reaction was initiated by adding a mixture of 200 μM nicotinamide mononucleotide (NMN) as activator and 100 μM NAD^+ as substrate. After 1 h of incubation at room temperature, the reaction was terminated with 10 times volume of 70% acetonitrile, then centrifuged at 3800 rpm for 10 min.
Molecule `CC(Nc1ccc2cc[nH]c(=O)c2c1)c1nc(Cl)sc1Cl` (racemic) [Compound 190, 7-((1-(2,5-dichlorothiazol-4-yl)ethyl)amino)isoquinolin-1(2H)-one] returned a concentration for half-maximal inhibition (IC50) of 0.1 to 0.5 µM. The result for `CC(C(N)=O)c1ccc(NS(=O)(=O)c2cccc(Cl)c2Cl)cc1` (racemic) [Compound 196, 2-(4-((2,3-dichlorophenyl)sulfonamido)phenyl)propanamide] reads less than 0.1 µM; that for `Cc1nc(C(C)Nc2ccc3cc[nH]c(=O)c3c2)sc1Cl` (racemic) [Compound 207, 7-((1-(5-chloro-4-methylthiazol-2-yl)ethyl)amino)isoquinolin-1(2H)-one], less than 0.1 µM; that for `Cc1nc(C(C)Nc2ccc3cc[nH]c(=O)c3c2)c(Cl)n1C` (racemic) [Compound 214, 7-((1-(5-chloro-1,2-dimethyl-1H-imidazol-4-yl)ethyl)amino)isoquinolin-1(2H)-one], 0.1 to 0.5 µM. The result for `CC(Nc1ccc2c(c1)NC(=O)C2(C)C)c1c(Cl)ccc(F)c1Cl` (racemic) [Compound 215, 6-[1-(2,6-dichloro-3-fluoro-phenyl)ethylamino]-3,3-dimethyl-indolin-2-one] reads less than 0.1 µM; that for `Cc1nc(C(C)Nc2ccc3nc[nH]c(=O)c3c2)sc1Cl` (racemic) [Compound 216, 6-((1-(5-chloro-4-methylthiazol-2-yl)ethyl)amino)quinazolin-4(3H)-one], less than 0.1 µM; that for `CC(Nc1ccc2c(c1)NC(=O)CCC2)c1nc(Cl)c(Cl)s1` (racemic) [Compound 229, 8-[1-(4,5-dichlorothiazol-2-yl)ethylamino]-1,3,4,5-tetrahydro-1-benzazepin-2-one], 0.1 to 0.5 µM. `CC(Nc1ccc2c(c1)NC(=O)CC2)c1nc(Cl)c(Cl)s1` (racemic) [Compound 230, 7-[1-(4,5-dichlorothiazol-2-yl)ethylamino]-3,4-dihydro-1H-quinolin-2-one] came in with an IC50 of 0.1 to 0.5 µM.

The molecule `CC(Nc1ccc2ccc(=O)[nH]c2c1)c1nc(Cl)c(Cl)s1` (racemic) [Compound 231, 7-[1-(4,5-dichlorothiazol-2-yl)ethylamino]-1H-quinolin-2-one] returned an IC50 of less than 0.1 µM.

For the molecule `CC(Nc1ccc2cc[nH]c(=O)c2c1)c1nn2c(c1Cl)CCCC2` (racemic) [Compound 232, 7-((1-(3-chloro-4,5,6,7-tetrahydropyrazolo[1,5-a]pyridin-2-yl)ethyl)amino)isoquinolin-1(2H)-one], the IC50 lay in the range of 0.1 to 0.5 µM. Under `CC(Nc1ccc2cc[nH]c(=O)c2c1)c1nc(Cl)c(Cl)n1C` (racemic) [Compound 233, 7-((1-(4,5-dichloro-1-methyl-1H-imidazol-2-yl)ethyl)amino)isoquinolin-1(2H)-one] stands 0.1 to 0.5 µM; under `CC(Nc1ccc2cc[nH]c(=O)c2c1)c1nc2c(s1)CCCC2` (racemic) [Compound 236, 7-((1-(4,5,6,7-tetrahydrobenzo[d]thiazol-2-yl)ethyl)amino)isoquinolin-1(2H)-one], 0.1 to 0.5 µM; under `CC(Nc1ccc2c(c1)c(C(=O)N(C)C)nn2C)c1c(Cl)ccc(F)c1Cl` (racemic) [Compound 245, 5-((1-(2,6-dichloro-3-fluorophenyl)ethyl)amino)-N,N1-trimethyl-1H-indazole-3-carboxamide], 0.1 to 0.5 µM. Under `CNC(=O)c1nn(C)c2ccc(NC(C)c3c(Cl)ccc(F)c3Cl)cc12` (racemic) [Compound 246, 5-((1-(2,6-dichloro-3-fluorophenyl)ethyl)amino)-N,1-dimethyl-1H-indazole-3-carboxamide] stands less than 0.1 µM. `CCn1nc(C(C)Nc2ccc3cc[nH]c(=O)c3c2)c(Cl)c1C` (racemic) [Compound 247, 7-((1-(4-chloro-1-ethyl-5-methyl-1H-pyrazol-3-yl)ethyl)amino)isoquinolin-1(2H)-one] gave an IC50 of less than 0.1 µM. Under `COc1nccc2ccc(NC(C)c3c(Cl)nn(C)c3Cl)cc12` (racemic) [Compound 248, N-(1-(3,5-dichloro-1-methyl-1H-pyrazol-4-yl)ethyl)-1-methoxyisoquinolin-7-amine] stands 0.1 to 0.5 µM; under `CC(Nc1ccc2cn[nH]c2c1)c1nc(Cl)c(Cl)s1` (racemic) [Compound 249, N-(1-(4,5-dichlorothiazol-2-yl)ethyl)-1H-indazol-6-amine], less than 0.1 µM; under `O=c1[nH]ccc2ccc(NC(CCO)c3cccc(Cl)c3Cl)cc12` (racemic) [Compound 252, 7-((1-(2,3-dichlorophenyl)-3-hydroxypropyl)amino)isoquinolin-1(2H)-one], less than 0.1 µM.

As to `CC(C)(O)C(Nc1ccc2cc[nH]c(=O)c2c1)c1cccc(Cl)c1Cl` (racemic) [Compound 253, 7-((1-(2,3-dichlorophenyl)-2-hydroxy-2-methylpropyl)amino)isoquinolin-1(2H)-one], the IC50 is less than 0.1 µM.

Molecule `CC(Nc1ccc2cc[nH]c(=O)c2c1)c1nn(C)c(Cl)c1Cl` (racemic) [Compound 256, 7-((1-(4,5-dichloro-1-methyl-1H-pyrazol-3-yl)ethyl)amino)isoquinolin-1(2H)-one] returned an IC50 of less than 0.1 µM.

In turn, `Cc1c(Cl)c(C(C)Nc2ccc3cc[nH]c(=O)c3c2)nn1CC(F)(F)F` (racemic) [Compound 257, 7-((1-(4-chloro-5-methyl-1-(2,2,2-trifluoroethyl)-1H-pyrazol-3-yl)ethyl)amino)isoquinolin-1(2H)-one] gave a half-inhibitory concentration (IC50) of less than 0.1 µM.

`CC(Nc1ccc2c(c1)NC(=O)OC2(C)C)c1nc(Cl)c(Cl)s1` (racemic) [Compound 258, 7-((1-(4,5-dichlorothiazol-2-yl)ethyl)amino)-4,4-dimethyl-1,4-dihydro-2H-benzo[d][1,3]oxazin-2-one] showed a half-maximal inhibitory concentration (IC50) of less than 0.1 µM. For `CC(Nc1ccc2nc[nH]c(=O)c2n1)c1c(Cl)ccc(F)c1Cl` (racemic) [Compound 259, 6-((1-(2,6-dichloro-3-fluorophenyl)ethyl)amino)pyrido[3,2-d]pyrimidin-4(3H)-one], the IC50 was less than 0.1 µM. As for `Cc1snc(C(C)Nc2ccc3nc[nH]c(=O)c3c2)c1Cl` (racemic) [Compound 260, 6-((1-(4-chloro-5-methylisothiazol-3-yl)ethyl)amino)quinazolin-4(3H)-one], the half-maximal inhibitory concentration (IC50) is 0.1 to 0.5 µM. Under `Cc1n[nH]c2cc(NC(C)c3nc(Cl)c(Cl)s3)ccc12` (racemic) [Compound 261, N-(1-(4,5-dichlorothiazol-2-yl)ethyl)-3-methyl-1H-indazol-6-amine] stands less than 0.1 µM. `COc1nccc2ccc(NC(C)c3nc4c(s3)CN(C(=O)OC(C)(C)C)CC4)cc12` (racemic) [Compound 262, tert-butyl 2-(1-((1-methoxyisoquinolin-7-yl)amino)ethyl)-6,7-dihydrothiazolo[5,4-c]pyridine-5(4H)-carboxylate] yielded a 50% inhibitory concentration (IC50) of 0.1 to 0.5 µM.

Take `CC(Nc1ccc2c(c1)nc(C(N)=O)n2C)c1c(Cl)ccc(F)c1Cl` (racemic) [Compound 263, 5-((1-(2,6-dichloro-3-fluorophenyl)ethyl)amino)-1-methyl-1H-benzo[d]imidazole-2-carboxamide]: the IC50 was less than 0.1 µM. `Cc1n[nH]c(=O)c2cc(NC(C)c3nccc(Cl)c3Cl)ccc12` (racemic) [Compound 266, 7-((1-(3,4-dichloropyridin-2-yl)ethyl)amino)-4-methylphthalazin-1(2H)-one] returned a half-maximal inhibitory concentration (IC50) of less than 0.1 µM.

These data come from US20250320184A1 (SIRONAX LTD., priority 2022, published 2025).
